Assay: compressibility factor (dimensionless); xn = mol fraction of the nth substance listed
Conditions: Liquid, Burnett expansion method

[N-]=[N+]=O [nitrous oxide] + FC(F)F
Conditions	compressibility factor
303.25 K, 141.8 kPa, x1 = 0.6613	0.9915
303.25 K, 151.7 kPa, x1 = 0.3152	0.9906
303.25 K, 160.7 kPa, x1 = 0.2248	0.991
303.25 K, 174.2 kPa, x1 = 0.5419	0.9896
303.25 K, 182.2 kPa, x1 = 0.4308	0.9882
303.25 K, 209.6 kPa, x1 = 0.7758	0.9883
303.25 K, 211.4 kPa, x1 = 0.6613	0.9879
303.25 K, 225.8 kPa, x1 = 0.3152	0.9858
303.25 K, 239.5 kPa, x1 = 0.2248	0.9872
303.25 K, 259.3 kPa, x1 = 0.5419	0.9847
303.25 K, 271.2 kPa, x1 = 0.4308	0.9832
303.25 K, 311.9 kPa, x1 = 0.7758	0.983
303.25 K, 314.4 kPa, x1 = 0.6613	0.9824
303.25 K, 335.5 kPa, x1 = 0.3152	0.9789
303.25 K, 356.1 kPa, x1 = 0.2248	0.9814
303.25 K, 385.1 kPa, x1 = 0.5419	0.9775
303.25 K, 402.6 kPa, x1 = 0.4308	0.9756
303.25 K, 462.7 kPa, x1 = 0.7758	0.9749
303.25 K, 466.4 kPa, x1 = 0.6613	0.974
303.25 K, 496.7 kPa, x1 = 0.3152	0.9688
303.25 K, 528.1 kPa, x1 = 0.2248	0.9726
303.25 K, 569.8 kPa, x1 = 0.5419	0.9668
303.25 K, 595 kPa, x1 = 0.4308	0.9638
303.25 K, 683.7 kPa, x1 = 0.7758	0.9628
303.25 K, 688.8 kPa, x1 = 0.6613	0.9615
303.25 K, 731.3 kPa, x1 = 0.3152	0.9534
303.25 K, 779.4 kPa, x1 = 0.2248	0.9596
303.25 K, 838.3 kPa, x1 = 0.5419	0.9507
303.25 K, 874.1 kPa, x1 = 0.4308	0.9464
303.25 K, 1003.6 kPa, x1 = 0.7758	0.9446
303.25 K, 1010.4 kPa, x1 = 0.6613	0.9427
303.25 K, 1068.3 kPa, x1 = 0.3152	0.9309
303.25 K, 1142.3 kPa, x1 = 0.2248	0.94
303.25 K, 1222.8 kPa, x1 = 0.5419	0.9269
303.25 K, 1272.3 kPa, x1 = 0.4308	0.9208
303.25 K, 1459.1 kPa, x1 = 0.7758	0.918
303.25 K, 1467.5 kPa, x1 = 0.6613	0.9152
303.25 K, 1541.6 kPa, x1 = 0.3152	0.8979
303.25 K, 1657.1 kPa, x1 = 0.2248	0.9115
303.25 K, 1760.9 kPa, x1 = 0.5419	0.8922
303.25 K, 1825.8 kPa, x1 = 0.4308	0.8832
303.25 K, 2090.5 kPa, x1 = 0.7758	0.8791
303.25 K, 2099 kPa, x1 = 0.6613	0.8749
303.25 K, 2185.1 kPa, x1 = 0.3152	0.8507
303.25 K, 2366.6 kPa, x1 = 0.2248	0.8701
303.25 K, 2486.5 kPa, x1 = 0.5419	0.8421
303.25 K, 2565.1 kPa, x1 = 0.4308	0.8294
303.25 K, 2929 kPa, x1 = 0.7758	0.8233
303.25 K, 2933.8 kPa, x1 = 0.6613	0.8174
303.25 K, 3012.1 kPa, x1 = 0.3152	0.7838
303.25 K, 3303.6 kPa, x1 = 0.2248	0.8119
303.25 K, 3408.6 kPa, x1 = 0.5419	0.7716
303.25 K, 3489.6 kPa, x1 = 0.4308	0.7542
303.25 K, 3965.1 kPa, x1 = 0.7758	0.7449
323.43 K, 176.4 kPa, x1 = 0.5105	0.9908
323.43 K, 262.8 kPa, x1 = 0.5105	0.987
323.43 K, 391 kPa, x1 = 0.5105	0.9814
323.43 K, 579.9 kPa, x1 = 0.5105	0.9729
323.43 K, 856.1 kPa, x1 = 0.5105	0.96
323.43 K, 1255 kPa, x1 = 0.5105	0.9406
323.43 K, 1820.9 kPa, x1 = 0.5105	0.9123
323.43 K, 2601.4 kPa, x1 = 0.5105	0.8711
323.43 K, 3632.8 kPa, x1 = 0.5105	0.8131
323.44 K, 159.9 kPa, x1 = 0.6428	0.9917
323.44 K, 170.7 kPa, x1 = 0.7792	0.992
323.44 K, 174 kPa, x1 = 0.358	0.9909
323.44 K, 238.4 kPa, x1 = 0.6428	0.9886
323.44 K, 254.5 kPa, x1 = 0.7792	0.9888
323.44 K, 259.3 kPa, x1 = 0.358	0.9869
323.44 K, 354.9 kPa, x1 = 0.6428	0.9837
323.44 K, 378.9 kPa, x1 = 0.7792	0.9837
323.44 K, 385.6 kPa, x1 = 0.358	0.9809
323.44 K, 527.1 kPa, x1 = 0.6428	0.9764
323.44 K, 562.3 kPa, x1 = 0.7792	0.9759
323.44 K, 571.6 kPa, x1 = 0.358	0.972
323.44 K, 779.5 kPa, x1 = 0.6428	0.9653
323.44 K, 831.2 kPa, x1 = 0.7792	0.9642
323.44 K, 843.2 kPa, x1 = 0.358	0.9583
323.44 K, 1145.9 kPa, x1 = 0.6428	0.9485
323.44 K, 1221 kPa, x1 = 0.7792	0.9467
323.44 K, 1235.2 kPa, x1 = 0.358	0.9384
323.44 K, 1669.1 kPa, x1 = 0.6428	0.9234
323.44 K, 1777.2 kPa, x1 = 0.7792	0.921
323.44 K, 1790.3 kPa, x1 = 0.358	0.9091
323.44 K, 2399.2 kPa, x1 = 0.6428	0.8872
323.44 K, 2551 kPa, x1 = 0.7792	0.8837
323.44 K, 2553.4 kPa, x1 = 0.358	0.8666
323.44 K, 3379.9 kPa, x1 = 0.6428	0.8354
323.44 K, 3557 kPa, x1 = 0.358	0.8069
323.44 K, 3585.4 kPa, x1 = 0.7792	0.8302
343.87 K, 201 kPa, x1 = 0.7837	0.9917
343.87 K, 299.8 kPa, x1 = 0.7837	0.9888
343.87 K, 446.5 kPa, x1 = 0.7837	0.9842
343.87 K, 663 kPa, x1 = 0.7837	0.9769
343.87 K, 980.8 kPa, x1 = 0.7837	0.966
343.87 K, 1442.6 kPa, x1 = 0.7837	0.9497
343.87 K, 2103.1 kPa, x1 = 0.7837	0.9254
343.87 K, 3026.4 kPa, x1 = 0.7837	0.8901
343.87 K, 4273 kPa, x1 = 0.7837	0.8401
343.95 K, 79.8 kPa, x1 = 0.6698	0.9965
343.95 K, 90.5 kPa, x1 = 0.2403	0.991
343.95 K, 92.3 kPa, x1 = 0.4174	0.9925
343.95 K, 119.5 kPa, x1 = 0.6698	0.9953
343.95 K, 128.4 kPa, x1 = 0.536	0.9933
343.95 K, 135.6 kPa, x1 = 0.2403	0.991
343.95 K, 138.2 kPa, x1 = 0.4174	0.9917
343.95 K, 178.9 kPa, x1 = 0.6698	0.9945
343.95 K, 192 kPa, x1 = 0.536	0.9915
343.95 K, 202.9 kPa, x1 = 0.2403	0.9897
343.95 K, 206.8 kPa, x1 = 0.4174	0.9901
343.95 K, 266.9 kPa, x1 = 0.6698	0.9901
343.95 K, 287 kPa, x1 = 0.536	0.9886
343.95 K, 303.2 kPa, x1 = 0.2403	0.9866
343.95 K, 308.9 kPa, x1 = 0.4174	0.9871
343.95 K, 398.2 kPa, x1 = 0.6698	0.9857
343.95 K, 428 kPa, x1 = 0.536	0.9839
343.95 K, 451.8 kPa, x1 = 0.2403	0.9812
343.95 K, 460.6 kPa, x1 = 0.4174	0.9821
343.95 K, 592.7 kPa, x1 = 0.6698	0.9789
343.95 K, 636.6 kPa, x1 = 0.536	0.9767
343.95 K, 671.3 kPa, x1 = 0.2403	0.9728
343.95 K, 684.7 kPa, x1 = 0.4174	0.9741
343.95 K, 879 kPa, x1 = 0.6698	0.9688
343.95 K, 943.2 kPa, x1 = 0.536	0.9656
343.95 K, 992.7 kPa, x1 = 0.2403	0.9599
343.95 K, 1013 kPa, x1 = 0.4174	0.9617
343.95 K, 1296.6 kPa, x1 = 0.6698	0.9537
343.95 K, 1389 kPa, x1 = 0.536	0.9489
343.95 K, 1457.5 kPa, x1 = 0.2403	0.9405
343.95 K, 1488.7 kPa, x1 = 0.4174	0.9431
343.95 K, 1897.6 kPa, x1 = 0.6698	0.9313
343.95 K, 2027.4 kPa, x1 = 0.536	0.9241
343.95 K, 2117.9 kPa, x1 = 0.2403	0.9119
343.95 K, 2166.3 kPa, x1 = 0.4174	0.9157
343.95 K, 2743.8 kPa, x1 = 0.6698	0.8986
343.95 K, 2920 kPa, x1 = 0.536	0.8882
343.95 K, 3030.8 kPa, x1 = 0.2403	0.8708
343.95 K, 3105.8 kPa, x1 = 0.4174	0.8761
343.95 K, 3898.2 kPa, x1 = 0.6698	0.8519
343.95 K, 4125.5 kPa, x1 = 0.536	0.8374
343.95 K, 4242.9 kPa, x1 = 0.2403	0.8135
343.95 K, 4359.1 kPa, x1 = 0.4174	0.8205
